According to publication doi:10.1101/2020.06.11.145995v1 (biorxiv, 2020):
Read-outs that look alike come from different tables or passages of the source.

Key:
Assay in all cases: biochemical
[1] = target: MELK (Homo sapiens, UniProt Q14680)
[2] = target: AKT1 (Homo sapiens, UniProt P31749)
[3] = target: MRCKB (Homo sapiens, UniProt Q9Y5S2)
[4] = target: CSNK1G3 (Homo sapiens, UniProt Q9Y6M4)
[5] = target: ABL2 (Homo sapiens, UniProt P42684)
[6] = target: MAPKAPK2 (Homo sapiens, UniProt P49137)
[7] = target: CDK5 (Homo sapiens, UniProt Q00535)
[8] = target: EGFR(L861Q) (Homo sapiens, UniProt P00533, L861Q)
[9] = target: AXL (Homo sapiens, UniProt P30530)
[10] = target: IKK-alpha (Homo sapiens, UniProt O15111)
[11] = target: MYLK2 (Homo sapiens, UniProt Q9H1R3)
[12] = target: HPK1 (Homo sapiens, UniProt Q92918)
[13] = target: FES (Homo sapiens, UniProt P07332)
[14] = target: CDK4-cyclinD1 (Homo sapiens, UniProt P11802)
[15] = target: INSRR (Homo sapiens, UniProt P14616)
[16] = target: CDK4-cyclinD3 (Homo sapiens, UniProt P11802)
[17] = target: MST3 (Homo sapiens, UniProt Q9Y6E0)
[18] = target: CSF1R (Homo sapiens, UniProt P07333)
[19] = target: CDC2L2 (Homo sapiens, UniProt Q9UQ88)
[20] = target: CDK2 (Homo sapiens, UniProt P24941)
[21] = target: MET(Y1235D) (Homo sapiens, UniProt P08581, Y1235D)
[22] = target: MAP3K4 (Homo sapiens, UniProt Q9Y6R4)
[23] = target: BMX (Homo sapiens, UniProt P51813)
[24] = target: LIMK1 (Homo sapiens, UniProt P53667)
[25] = target: CIT (Homo sapiens, UniProt O14578)
[26] = target: MST2 (Homo sapiens, UniProt Q13188)
[27] = target: MUSK (Homo sapiens, UniProt O15146)
[28] = target: MTOR (Homo sapiens, UniProt P42345)
[29] = target: MEK3 (Homo sapiens, UniProt P46734)
[30] = target: BRSK1 (Homo sapiens, UniProt Q8TDC3)
[31] = read-out: CPT-1-70-1 (1uM) % control
[32] = read-out: HYJ-2-002-1 (1uM) % control

Sequence of CIT (O14578 whole entry): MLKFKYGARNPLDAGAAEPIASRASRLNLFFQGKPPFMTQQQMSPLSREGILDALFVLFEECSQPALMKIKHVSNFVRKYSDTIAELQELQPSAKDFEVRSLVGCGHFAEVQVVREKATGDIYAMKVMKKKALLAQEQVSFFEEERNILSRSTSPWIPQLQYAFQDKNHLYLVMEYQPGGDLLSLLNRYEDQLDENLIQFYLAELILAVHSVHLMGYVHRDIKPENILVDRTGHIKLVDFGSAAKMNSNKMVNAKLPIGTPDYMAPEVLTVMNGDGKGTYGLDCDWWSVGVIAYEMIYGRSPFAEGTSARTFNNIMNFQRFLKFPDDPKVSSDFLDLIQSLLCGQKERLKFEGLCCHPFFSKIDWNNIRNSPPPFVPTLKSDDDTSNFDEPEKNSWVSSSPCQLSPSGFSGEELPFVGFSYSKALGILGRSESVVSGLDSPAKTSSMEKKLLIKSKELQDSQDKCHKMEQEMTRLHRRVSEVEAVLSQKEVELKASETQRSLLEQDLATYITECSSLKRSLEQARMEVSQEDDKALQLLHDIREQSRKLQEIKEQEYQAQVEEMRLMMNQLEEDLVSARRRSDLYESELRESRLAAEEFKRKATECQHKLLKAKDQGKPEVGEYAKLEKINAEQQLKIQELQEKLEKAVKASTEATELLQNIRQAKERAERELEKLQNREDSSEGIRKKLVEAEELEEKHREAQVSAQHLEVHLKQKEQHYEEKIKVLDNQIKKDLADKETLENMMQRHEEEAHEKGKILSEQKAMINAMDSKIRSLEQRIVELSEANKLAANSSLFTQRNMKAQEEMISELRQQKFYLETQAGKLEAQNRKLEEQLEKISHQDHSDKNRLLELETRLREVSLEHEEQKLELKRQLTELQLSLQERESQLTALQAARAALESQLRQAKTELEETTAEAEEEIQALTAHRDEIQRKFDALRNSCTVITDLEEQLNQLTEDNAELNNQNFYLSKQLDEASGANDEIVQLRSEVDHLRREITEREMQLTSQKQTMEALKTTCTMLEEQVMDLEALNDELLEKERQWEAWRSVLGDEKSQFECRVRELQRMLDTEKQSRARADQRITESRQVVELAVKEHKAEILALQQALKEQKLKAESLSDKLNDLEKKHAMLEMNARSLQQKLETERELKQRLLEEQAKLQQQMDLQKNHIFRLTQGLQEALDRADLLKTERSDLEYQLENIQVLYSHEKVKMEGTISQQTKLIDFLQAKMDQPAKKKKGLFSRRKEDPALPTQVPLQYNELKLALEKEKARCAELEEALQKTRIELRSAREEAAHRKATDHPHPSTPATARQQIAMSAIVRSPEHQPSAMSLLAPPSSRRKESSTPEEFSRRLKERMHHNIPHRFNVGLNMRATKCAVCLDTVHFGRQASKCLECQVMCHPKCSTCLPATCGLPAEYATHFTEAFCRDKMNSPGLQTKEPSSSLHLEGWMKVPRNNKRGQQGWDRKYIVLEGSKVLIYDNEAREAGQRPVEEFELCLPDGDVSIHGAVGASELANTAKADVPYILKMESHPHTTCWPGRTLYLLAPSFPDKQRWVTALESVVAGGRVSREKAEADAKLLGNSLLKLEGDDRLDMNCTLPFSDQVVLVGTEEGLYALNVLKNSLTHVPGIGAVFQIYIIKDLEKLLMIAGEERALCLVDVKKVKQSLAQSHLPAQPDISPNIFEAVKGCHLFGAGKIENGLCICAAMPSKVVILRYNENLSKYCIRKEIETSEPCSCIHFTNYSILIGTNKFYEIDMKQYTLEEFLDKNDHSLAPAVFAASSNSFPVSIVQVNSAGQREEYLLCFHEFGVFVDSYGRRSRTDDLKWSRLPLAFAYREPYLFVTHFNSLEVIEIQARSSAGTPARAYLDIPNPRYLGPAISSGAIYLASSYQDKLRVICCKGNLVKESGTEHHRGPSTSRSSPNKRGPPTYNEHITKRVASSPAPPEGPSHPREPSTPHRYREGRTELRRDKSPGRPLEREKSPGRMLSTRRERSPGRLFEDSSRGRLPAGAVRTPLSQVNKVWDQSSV
Sequence of AKT1 (P31749 whole entry): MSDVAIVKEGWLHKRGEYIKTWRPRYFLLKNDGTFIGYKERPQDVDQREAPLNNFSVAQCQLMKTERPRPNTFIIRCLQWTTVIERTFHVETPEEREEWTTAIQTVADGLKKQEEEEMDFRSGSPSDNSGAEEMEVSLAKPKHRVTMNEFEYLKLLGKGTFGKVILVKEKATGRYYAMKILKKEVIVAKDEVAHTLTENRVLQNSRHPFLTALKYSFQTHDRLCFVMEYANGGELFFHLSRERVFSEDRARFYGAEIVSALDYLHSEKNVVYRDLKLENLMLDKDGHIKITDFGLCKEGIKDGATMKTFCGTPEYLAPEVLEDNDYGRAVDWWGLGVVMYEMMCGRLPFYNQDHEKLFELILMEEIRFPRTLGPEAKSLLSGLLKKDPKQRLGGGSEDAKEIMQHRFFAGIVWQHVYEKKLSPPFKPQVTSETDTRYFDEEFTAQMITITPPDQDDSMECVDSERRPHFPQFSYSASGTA
Sequence of HPK1 (Q92918 whole entry): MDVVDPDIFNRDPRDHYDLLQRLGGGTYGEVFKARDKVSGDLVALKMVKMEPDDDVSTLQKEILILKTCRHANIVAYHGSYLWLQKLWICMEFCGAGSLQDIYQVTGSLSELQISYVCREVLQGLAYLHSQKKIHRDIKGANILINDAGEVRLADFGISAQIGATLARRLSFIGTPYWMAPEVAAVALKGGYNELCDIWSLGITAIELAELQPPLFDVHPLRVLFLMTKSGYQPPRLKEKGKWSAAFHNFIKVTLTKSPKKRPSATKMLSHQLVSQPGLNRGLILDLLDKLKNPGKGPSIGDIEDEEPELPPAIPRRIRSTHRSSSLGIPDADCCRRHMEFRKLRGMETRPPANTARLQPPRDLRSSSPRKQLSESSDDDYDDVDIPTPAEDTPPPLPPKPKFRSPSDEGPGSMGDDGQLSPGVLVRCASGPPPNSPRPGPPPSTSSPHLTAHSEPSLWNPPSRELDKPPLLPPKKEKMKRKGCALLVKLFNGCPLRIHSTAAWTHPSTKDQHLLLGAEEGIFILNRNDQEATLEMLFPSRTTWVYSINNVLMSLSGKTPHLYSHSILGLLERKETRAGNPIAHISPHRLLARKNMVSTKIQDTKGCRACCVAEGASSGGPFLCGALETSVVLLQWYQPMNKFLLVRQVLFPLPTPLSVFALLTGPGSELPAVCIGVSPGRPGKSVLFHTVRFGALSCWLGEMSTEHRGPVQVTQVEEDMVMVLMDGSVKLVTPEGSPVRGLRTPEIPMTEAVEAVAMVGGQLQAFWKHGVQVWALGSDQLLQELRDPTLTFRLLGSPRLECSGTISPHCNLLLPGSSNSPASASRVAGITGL
Sequence of MST2 (Q13188 whole entry): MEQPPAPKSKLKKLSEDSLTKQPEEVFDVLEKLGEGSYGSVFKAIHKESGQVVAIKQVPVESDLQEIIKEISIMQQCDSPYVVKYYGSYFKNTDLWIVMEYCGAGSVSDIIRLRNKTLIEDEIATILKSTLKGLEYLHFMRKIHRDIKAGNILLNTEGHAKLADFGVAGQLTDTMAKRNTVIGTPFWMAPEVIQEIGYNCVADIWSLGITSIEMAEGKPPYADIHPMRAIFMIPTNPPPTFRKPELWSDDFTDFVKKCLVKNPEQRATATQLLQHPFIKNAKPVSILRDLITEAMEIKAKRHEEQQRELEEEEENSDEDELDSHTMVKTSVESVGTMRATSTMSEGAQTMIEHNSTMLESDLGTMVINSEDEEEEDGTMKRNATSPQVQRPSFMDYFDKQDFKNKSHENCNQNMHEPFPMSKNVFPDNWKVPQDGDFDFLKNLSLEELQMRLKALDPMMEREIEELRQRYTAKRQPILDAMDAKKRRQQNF
Sequence of AXL (P30530 whole entry): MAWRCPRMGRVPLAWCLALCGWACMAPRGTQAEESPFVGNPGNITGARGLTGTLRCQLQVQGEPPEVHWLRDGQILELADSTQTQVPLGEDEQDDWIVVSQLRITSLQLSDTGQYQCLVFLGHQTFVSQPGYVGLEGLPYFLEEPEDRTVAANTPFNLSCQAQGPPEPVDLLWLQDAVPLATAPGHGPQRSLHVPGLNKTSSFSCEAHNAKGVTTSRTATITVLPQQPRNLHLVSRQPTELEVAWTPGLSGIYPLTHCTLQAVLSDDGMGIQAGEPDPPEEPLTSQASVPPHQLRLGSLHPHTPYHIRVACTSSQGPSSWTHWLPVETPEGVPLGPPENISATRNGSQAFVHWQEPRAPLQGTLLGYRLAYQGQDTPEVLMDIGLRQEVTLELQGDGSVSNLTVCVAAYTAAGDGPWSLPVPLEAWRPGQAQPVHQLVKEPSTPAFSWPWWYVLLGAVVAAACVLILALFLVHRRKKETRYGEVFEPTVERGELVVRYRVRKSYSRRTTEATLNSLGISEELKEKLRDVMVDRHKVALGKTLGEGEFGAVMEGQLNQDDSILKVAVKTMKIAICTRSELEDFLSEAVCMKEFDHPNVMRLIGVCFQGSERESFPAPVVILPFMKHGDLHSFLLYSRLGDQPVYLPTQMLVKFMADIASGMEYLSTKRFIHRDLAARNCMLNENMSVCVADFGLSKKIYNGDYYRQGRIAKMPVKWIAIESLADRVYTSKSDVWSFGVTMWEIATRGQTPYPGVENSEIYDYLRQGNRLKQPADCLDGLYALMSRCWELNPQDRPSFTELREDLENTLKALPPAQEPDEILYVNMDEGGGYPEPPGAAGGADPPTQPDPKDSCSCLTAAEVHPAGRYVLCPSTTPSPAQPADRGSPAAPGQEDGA
Sequence of CDK5 (Q00535 whole entry): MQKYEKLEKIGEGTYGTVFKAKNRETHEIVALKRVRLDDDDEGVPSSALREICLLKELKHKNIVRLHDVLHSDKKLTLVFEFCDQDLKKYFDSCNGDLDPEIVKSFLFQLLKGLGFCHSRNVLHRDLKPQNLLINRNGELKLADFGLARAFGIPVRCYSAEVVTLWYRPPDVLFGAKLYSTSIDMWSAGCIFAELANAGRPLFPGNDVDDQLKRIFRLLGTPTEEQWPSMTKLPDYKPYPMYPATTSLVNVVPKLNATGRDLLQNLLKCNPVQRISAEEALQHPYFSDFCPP

In the case of `CN1CCN(c2ccc(Nc3nc(Oc4ccc(NC(=O)CCl)cc4)c4cc[nH]c4n3)cc2)CC1` [CPT1-70-1], the remaining activity at 1 µM [1, 31] is reported as 16%, the remaining activity at 1 µM [2, 31] is reported as 100% and the remaining activity at 1 µM [3, 31] is reported as 100%. For the same compound, the remaining activity at 1 µM [4, 31] was 2.6%, the remaining activity at 1 µM [5, 31] was 60% and the remaining activity at 1 µM [6, 31] was 100%. The remaining activity at 1 µM [7, 31] was 100%, the remaining activity at 1 µM [8, 31] was 18% and the remaining activity at 1 µM [9, 31] was 4.8%. For the same compound, the remaining activity at 1 µM [10, 31] was 85%, the remaining activity at 1 µM [11, 31] was 86% and the remaining activity at 1 µM [12, 31] was 13%. It also gave a remaining activity at 1 µM [13, 31] of 73%, a remaining activity at 1 µM [14, 31] of 81% and a remaining activity at 1 µM [15, 31] of 33%. For the same compound, the remaining activity at 1 µM [16, 31] was 100%, the remaining activity at 1 µM [17, 31] was 93% and the remaining activity at 1 µM [18, 31] was 12%. The remaining activity at 1 µM [19, 31] was 100%, the remaining activity at 1 µM [20, 31] was 100% and the remaining activity at 1 µM [21, 31] was 23%. For the same compound, the remaining activity at 1 µM [22, 31] was 66%, the remaining activity at 1 µM [23, 31] was 9.2% and the remaining activity at 1 µM [24, 31] was 90%. The remaining activity at 1 µM [25, 31] was 26%, the remaining activity at 1 µM [26, 31] was 86% and the remaining activity at 1 µM [27, 31] was 8.8%. For the same compound, the remaining activity at 1 µM [28, 31] was 66%, the remaining activity at 1 µM [29, 31] was 26% and the remaining activity at 1 µM [30, 31] was 100%.

Work on `CCN1CCN(Cc2ccc(NC(=O)c3ccc(C)c(CCc4cnc5[nH]ccc5c4OC)c3)cc2C(F)(F)F)CC1` [HYJ-2-002-1] yielded a remaining activity at 1 µM [1, 32] of 48%, a remaining activity at 1 µM [2, 32] of 100% and a remaining activity at 1 µM [3, 32] of 100%. The remaining activity at 1 µM [4, 32] was 65%, the remaining activity at 1 µM [5, 32] was 0% and the remaining activity at 1 µM [6, 32] was 100%. It also gave a remaining activity at 1 µM [7, 32] of 100%, a remaining activity at 1 µM [8, 32] of 0.85% and a remaining activity at 1 µM [9, 32] of 21%. The remaining activity at 1 µM [10, 32] was 0.2%, the remaining activity at 1 µM [11, 32] was 0.85% and the remaining activity at 1 µM [12, 32] was 3.4%. It also gave a remaining activity at 1 µM [13, 32] of 13%, a remaining activity at 1 µM [14, 32] of 80% and a remaining activity at 1 µM [15, 32] of 100%. It also gave a remaining activity at 1 µM [16, 32] of 100%, a remaining activity at 1 µM [17, 32] of 76% and a remaining activity at 1 µM [18, 32] of 0.45%. It also gave a remaining activity at 1 µM [19, 32] of 76%, a remaining activity at 1 µM [20, 32] of 100% and a remaining activity at 1 µM [21, 32] of 83%. It also gave a remaining activity at 1 µM [22, 32] of 100%, a remaining activity at 1 µM [23, 32] of 8.7% and a remaining activity at 1 µM [24, 32] of 26%. For the same compound, the remaining activity at 1 µM [25, 32] was 6.7%, the remaining activity at 1 µM [26, 32] was 83% and the remaining activity at 1 µM [27, 32] was 1.4%. It also gave a remaining activity at 1 µM [28, 32] of 93%, a remaining activity at 1 µM [29, 32] of 100% and a remaining activity at 1 µM [30, 32] of 97%.
